Where two headings read alike, the source gives them in different places.
Tested on: thromboxane B2 (TxB2) formation
Assay: TxB2 generation in clotted whole blood of anaesthetized rabbits after intravenous dosing (method of Patrono et al., RIA)
Type: in vivo, New Zealand white rabbits
Details: Oryctolagus cuniculus, read-out: Percent Inhibition (%) of TxB2 formation; for inhibition at 1 mg/kg: 1.0 mg/kg i.v.; for inhibition at 0.3 mg/kg: 0.3 mg/kg i.v.; for inhibition at 0.1 mg/kg: 0.1 mg/kg i.v.
Protocol: A number of in vivo tests in animals have also been described for evaluating potential anti-thrombotic drugs. For instance, the method of Patrono et al. is adapted to study the generation of TxB2 in whole blood samples removed from animals prior to and following drug treatment. Briefly, blood samples are taken into glass tubes and allowed to clot at 37° C. Serum is then separated by centrifugation and the samples stored at -40° C. until assayed for TxB2, when appropriate dilutions of ethanol deproteinized samples are thereafter analyzed by RIA. This technique is used in experiments with the test compounds to determine intravenous potency in anesthetized rabbits.
In this study, male New Zealand white rabbits (2.6-5.6 kg.) are anesthetized with sodium pentobarbitone (30 mg./kg., i.v.), followed by urethane (500 mg./kg., i.p.). After cannulation of the trachea, a carotid artery is catheterized for collection of the blood samples. The catheter is kept patent by slow infusion (0.2 ml./minutes) of sterile saline. Control carotid arterial blood samples are then taken at 30 minutes and at 5 minutes prior to administration of the test compound or vehicle (0.9% w./v. NaCl, 0.2 ml./kg.) via a marginal ear vein. Three groups of rabbits are employed in the test. The first group is given the test compound at 0.03 mg./kg., followed one hour later by a second dose at 0.1 mg./kg. Similarly, the second group is administered the test compound at 0.3 mg./kg., followed by a second dose (one hour later) at 1.0 mg./kg. The third group is treated with the vehicle alone, followed one hour later by a further vehicle injection. Carotid arterial blood samples are then taken at various time intervals after all doses. At each time point, a 1.0 ml. blood sample is taken into a glass tube, without anticoagulant, for TxB2 determination. For the latter determination, the blood sample is allowed to clot during a two-hour incubation period at 37° C. (which preliminary experiments had already shown to give a maximum TxB2 production) and the resulting serum obtained by centrifugation. The serum samples are then processed through the TxB2 -RIA after deproteinization with ethanol and dilution with Isogel Tris buffer.

Structure (SMILES)	inhibition at 1 mg/kg (2 min, 2 min) [%]	inhibition at 0.3 mg/kg (0.25 h, 15 min) [%]	inhibition at 1 mg/kg (0.25 h, 15 min) [%]	inhibition at 0.3 mg/kg (0.5 h, 30 min) [%]	inhibition at 1 mg/kg (0.75 h, 45 min) [%]	inhibition at 1 mg/kg (1.25 h, 75 min) [%]	inhibition at 0.3 mg/kg (2 min, 2 min) [%]	inhibition at 0.1 mg/kg (0.25 h, 15 min) [%]	inhibition at 0.1 mg/kg (0.5 h, 30 min) [%]	inhibition at 0.3 mg/kg (0.75 h, 45 min) [%]	inhibition at 0.3 mg/kg (1.25 h, 75 min) [%]
Cc1c(Cn2ccnc2)c2ccccc2n1/C=C/C(=O)O [Ex. 1, E-3-{1-[2-methyl-3-(1-imidazolyl-methyl)]indolyl}-acrylic acid]	93	93	96	93	95	95					
Cc1c(Cc2cccnc2)c2ccccc2n1/C=C/C(=O)O [Ex. 2, E-3-{1-[2-methyl-3-(3-pyridylmethyl)]indolyl}-acrylic acid]	97	98	94		97	95	95	81	82	93	90

— patent US4451472A, “Inhibition of thromboxane synthetase with 3-(heteroalkyl)-indolyl-acrylic acid derivatives” (Pfizer Inc., priority 1981, dated 1984)
